Test results: ChEMBL document CHEMBL3877299, “Imidazopyridine-fused [1,3]-diazepinones part 2: Structure-activity relationships and antiproliferative activity against melanoma cells” (Eur J Med Chem, 2017)

What was measured:
[1] = Growth inhibition of human SN12C cells assessed as cell growth at 10 uM incubated for 48 hrs by sulforhodamine B assay relative to control; assay type: functional; settings: read-out: Activity
[2] = Growth inhibition of human T47D cells assessed as cell growth at 10 uM incubated for 48 hrs by sulforhodamine B assay relative to control; assay type: functional; settings: read-out: Activity
[3] = Growth inhibition of human NCI-H322M cells assessed as cell growth at 10 uM incubated for 48 hrs by sulforhodamine B assay relative to control; assay type: functional; settings: read-out: Activity
[4] = Growth inhibition of human SK-MEL-5 cells assessed as cell growth at 10 uM incubated for 48 hrs by sulforhodamine B assay relative to control; assay type: functional; settings: SK-MEL-5, 48 h, read-out: Activity
[5] = Growth inhibition of human MCF7 cells assessed as cell growth at 10 uM incubated for 48 hrs by sulforhodamine B assay relative to control; assay type: functional; settings: MCF7, 48 h, read-out: Activity
[6] = Growth inhibition of human K562 cells assessed as cell growth at 10 uM incubated for 48 hrs by sulforhodamine B assay relative to control; assay type: functional; settings: K562, 48 h, read-out: Activity
[7] = Growth inhibition of human HT-29 cells assessed as cell growth at 10 uM incubated for 48 hrs by sulforhodamine B assay relative to control; assay type: functional; settings: HT-29, 48 h, read-out: Activity
[8] = Growth inhibition of human Hs 578T cells assessed as cell growth at 10 uM incubated for 48 hrs by sulforhodamine B assay relative to control; assay type: functional; settings: read-out: Activity
[9] = Growth inhibition of human HOP62 cells assessed as cell growth at 10 uM incubated for 48 hrs by sulforhodamine B assay relative to control; assay type: functional; settings: HOP-62, 48 h, read-out: Activity
[10] = Growth inhibition of human UACC257 cells assessed as cell growth at 10 uM incubated for 48 hrs by sulforhodamine B assay relative to control; assay type: functional; settings: UACC-257, 48 h, read-out: Activity
[11] = Cytotoxicity against human MDA-MB-435 cells assessed as growth inhibition after 48 hrs by MTT assay; assay type: functional; settings: MDA-MB-435, 48 h
[12] = Growth inhibition of human MOLT4 cells assessed as cell growth at 10 uM incubated for 48 hrs by sulforhodamine B assay relative to control; assay type: functional; settings: MOLT-4, 48 h, read-out: Activity
[13] = Growth inhibition of human BT549 cells assessed as cell growth at 10 uM incubated for 48 hrs by sulforhodamine B assay relative to control; assay type: functional; settings: BT-549, 48 h, read-out: Activity
[14] = Growth inhibition of human HCT116 cells assessed as cell growth at 10 uM incubated for 48 hrs by sulforhodamine B assay relative to control; assay type: functional; settings: HCT-116, 48 h, read-out: Activity
[15] = Growth inhibition of human UO31 cells assessed as cell growth at 10 uM incubated for 48 hrs by sulforhodamine B assay relative to control; assay type: functional; settings: UO-31, 48 h, read-out: Activity
[16] = Growth inhibition of human A498 cells assessed as cell growth at 10 uM incubated for 48 hrs by sulforhodamine B assay relative to control; assay type: functional; settings: A498, 48 h, read-out: Activity
[17] = Growth inhibition of human SF295 cells assessed as cell growth at 10 uM incubated for 48 hrs by sulforhodamine B assay relative to control; assay type: functional; settings: SF-295, 48 h, read-out: Activity
[18] = Growth inhibition of human SR cells assessed as cell growth at 10 uM incubated for 48 hrs by sulforhodamine B assay relative to control; assay type: functional; settings: read-out: Activity
[19] = Growth inhibition of human EKVX cells assessed as cell growth at 10 uM incubated for 48 hrs by sulforhodamine B assay relative to control; assay type: functional; settings: read-out: Activity
[20] = Growth inhibition of human SKOV3 cells assessed as cell growth at 10 uM incubated for 48 hrs by sulforhodamine B assay relative to control; assay type: functional; settings: SK-OV-3, 48 h, read-out: Activity
[21] = Growth inhibition of human DU145 cells assessed as cell growth at 10 uM incubated for 48 hrs by sulforhodamine B assay relative to control; assay type: functional; settings: DU-145, 48 h, read-out: Activity
[22] = Growth inhibition of human MDA-MB-468 cells assessed as cell growth at 10 uM incubated for 48 hrs by sulforhodamine B assay relative to control; assay type: functional; settings: MDA-MB-468, 48 h, read-out: Activity
[23] = Growth inhibition of human OVCAR3 cells assessed as cell growth at 10 uM incubated for 48 hrs by sulforhodamine B assay relative to control; assay type: functional; settings: OVCAR-3, 48 h, read-out: Activity
[24] = Growth inhibition of human PC3 cells assessed as cell growth at 10 uM incubated for 48 hrs by sulforhodamine B assay relative to control; assay type: functional; settings: PC-3, 48 h, read-out: Activity
[25] = Growth inhibition of human NCI-H226 cells assessed as cell growth at 10 uM incubated for 48 hrs by sulforhodamine B assay relative to control; assay type: functional; settings: NCI-H226, 48 h, read-out: Activity
[26] = molecular target: Mitogen-activated protein kinase kinase kinase kinase 4 (Homo sapiens, UniProt O95819); test: Inhibition of recombinant human HGK using Ulight-FLGFTYVAP as substrate after 90 mins by LANCE assay
Sequence of Mitogen-activated protein kinase kinase kinase kinase 4 (O95819 whole entry): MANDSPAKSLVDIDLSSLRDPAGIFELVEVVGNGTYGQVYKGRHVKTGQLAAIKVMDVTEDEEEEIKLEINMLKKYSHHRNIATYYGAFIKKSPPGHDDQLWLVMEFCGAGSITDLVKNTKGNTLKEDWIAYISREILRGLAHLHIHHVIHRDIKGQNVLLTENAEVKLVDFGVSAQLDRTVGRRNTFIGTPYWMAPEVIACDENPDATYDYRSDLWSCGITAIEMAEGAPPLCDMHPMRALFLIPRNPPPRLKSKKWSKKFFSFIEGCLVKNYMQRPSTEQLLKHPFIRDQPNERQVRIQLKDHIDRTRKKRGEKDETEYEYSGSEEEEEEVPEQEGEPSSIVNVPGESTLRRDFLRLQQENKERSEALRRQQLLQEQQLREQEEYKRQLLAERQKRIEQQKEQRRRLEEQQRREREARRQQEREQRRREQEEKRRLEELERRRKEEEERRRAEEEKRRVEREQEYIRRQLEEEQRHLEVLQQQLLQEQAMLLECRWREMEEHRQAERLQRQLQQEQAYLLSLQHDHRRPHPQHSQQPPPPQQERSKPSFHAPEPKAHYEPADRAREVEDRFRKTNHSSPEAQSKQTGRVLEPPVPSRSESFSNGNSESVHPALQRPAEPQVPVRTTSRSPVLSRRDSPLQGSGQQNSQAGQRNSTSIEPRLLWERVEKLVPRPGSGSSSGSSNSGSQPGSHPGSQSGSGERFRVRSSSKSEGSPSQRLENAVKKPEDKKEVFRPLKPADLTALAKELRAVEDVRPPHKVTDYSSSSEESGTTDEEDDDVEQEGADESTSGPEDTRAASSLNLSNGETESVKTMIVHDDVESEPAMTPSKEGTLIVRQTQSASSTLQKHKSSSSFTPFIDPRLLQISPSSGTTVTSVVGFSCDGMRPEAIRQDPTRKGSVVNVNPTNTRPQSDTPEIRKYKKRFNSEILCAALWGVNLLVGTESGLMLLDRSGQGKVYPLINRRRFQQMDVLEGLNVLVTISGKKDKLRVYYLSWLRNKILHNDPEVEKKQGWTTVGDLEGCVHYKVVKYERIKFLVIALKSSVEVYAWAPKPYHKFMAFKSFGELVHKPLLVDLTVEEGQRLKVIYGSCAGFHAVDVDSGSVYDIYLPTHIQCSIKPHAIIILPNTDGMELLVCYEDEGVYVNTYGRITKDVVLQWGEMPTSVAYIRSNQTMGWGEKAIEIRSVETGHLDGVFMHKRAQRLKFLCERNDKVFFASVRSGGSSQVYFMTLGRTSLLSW

[27] = Growth inhibition of human HOP92 cells assessed as cell growth at 10 uM incubated for 48 hrs by sulforhodamine B assay relative to control; assay type: functional; settings: HOP-92, 48 h, read-out: Activity

Row | SMILES | growth at 10 µM [1] [%] | growth at 10 µM [2] [%] | growth at 10 µM [3] [%] | growth at 10 µM [4] [%] | growth at 10 µM [5] [%] | growth at 10 µM [6] [%] | growth at 10 µM [7] [%] | growth at 10 µM [8] [%] | growth at 10 µM [9] [%] | growth at 10 µM [10] [%] | GI50 [11] [nM] | growth at 10 µM [12] [%] | growth at 10 µM [13] [%] | growth at 10 µM [14] [%] | growth at 10 µM [15] [%] | growth at 10 µM [16] [%] | growth at 10 µM [17] [%] | growth at 10 µM [18] [%] | growth at 10 µM [19] [%] | growth at 10 µM [20] [%] | also measured
1 | C[C@@H]1NC(c2ccc(Cl)cc2)=Nc2nc3ccccn3c2C1=O | 96.8 | 81.4 | 87 | 87.7 | 69.2 | 70 | 85.4 | 87.1 | 73.3 | 80.7 | 5000 | 88.5 | 93.6 | 97 | 68.2 | 118 | 92.4 | 46.7 | 92.4 | 75.5 | growth at 10 µM [21]: 100%; growth at 10 µM [22]: 97.9%; growth at 10 µM [23]: 84.3%; growth at 10 µM [24]: 90%; growth at 10 µM [25]: 88%
2 | CC(C)(C)OC[C@@H]1NC(c2ccc(Br)cc2)=Nc2nc3ccccn3c2C1=O | 84.1 | 61.9 | 84.8 | 38.4 | 27.8 | 25.2 | 21.8 | 65.2 | 54.5 | 62.3 | 950 | 53.7 | 72.5 | 43.7 | 52.1 | 66.9 | 30.9 | 35.4 | 81.6 | 64.3 | growth at 10 µM [21]: 82.7%; IC50 [26]: 5.6 µM; growth at 10 µM [22]: 45.6%; growth at 10 µM [23]: 34.2%; growth at 10 µM [24]: 53.4%; growth at 10 µM [25]: 78.1%
3 | C[C@@H]1NC(c2ccc3ccccc3c2)=Nc2nc3ccccn3c2C1=O | 60.1 | 41.7 | 73.2 | 35.3 | 25.2 | 27.6 | 5.93 | 29.3 | 36.7 | 40.9 | 1400 | 34.5 | 35.1 | 18.3 | 55.6 | 47.2 | 14.9 | 30.5 | 75.6 | 40.5 | growth at 10 µM [21]: 73.3%; growth at 10 µM [22]: 50.5%; growth at 10 µM [23]: 16.9%; growth at 10 µM [24]: 52%; growth at 10 µM [25]: 64.5%
4 | C[C@@H]1NC(c2ccc(Cl)cc2Cl)=Nc2nc3ccccn3c2C1=O | 75.8 | 64.3 | 63.6 | 39.6 | 16.8 | 23.6 | 7.68 | 52 | 52.6 | 52.4 | 1150 | 50.4 | 55.6 | 28.1 | 52.4 | 60.7 | 14.5 | 33 | 82.5 | 50.1 | growth at 10 µM [27]: 55.9%; growth at 10 µM [21]: 64.8%; IC50 [26]: > 100 µM; growth at 10 µM [22]: 53.9%; growth at 10 µM [23]: 2.44%; growth at 10 µM [24]: 39.1%; growth at 10 µM [25]: 75.7%
